Data taken from patent publication US20240132431A1, “METHOD FOR ALKYLATING ACIDIC FUNCTIONAL GROUP” (Chugai Seiyaku Kabushiki Kaisha, priority 2021, published 2024).

Target: T1, Bcl-2 protein (Recombinant Human Bcl-2 Protein) (Homo sapiens, UniProt P10415)
T1 construct: purchased Novus NBP2-34889
Assay: Binding evaluation of mixture library compounds to Bcl-2 using AS-MS (affinity selection mass spectrometry)
How it was run: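 Bcl-2 binding is scored from LC/MS signal retained with protein through gel-filtration spin columns, normalised to unfiltered and protein-free controls. Incubation: 20 μM protein, […] per compound, 1 h, 23° C.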

T1 sequence (P10415 whole entry): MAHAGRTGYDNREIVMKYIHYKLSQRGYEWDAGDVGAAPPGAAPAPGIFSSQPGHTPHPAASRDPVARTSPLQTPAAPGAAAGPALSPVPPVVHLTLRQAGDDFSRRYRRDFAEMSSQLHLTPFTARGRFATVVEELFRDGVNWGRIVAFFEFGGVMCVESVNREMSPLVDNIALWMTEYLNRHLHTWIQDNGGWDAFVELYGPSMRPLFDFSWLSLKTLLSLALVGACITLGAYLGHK

Row | Structure (SMILES) | ASMS ratio (%) (n = 1) | ASMS ratio (%) (n = 2)
1 | CCOc1cccc(C#Cc2cncc(C(=O)N3CCN(c4ccc(C(=O)NS(=O)(=O)CCC(F)(F)F)cc4)CC3)c2)c1 [B2N031-01, 4-[4-[5-[2-(3-Ethoxyphenyl)ethynyl]pyridine-3-carbonyl]piperazin-1-yl]-N-(3,3,3-trifluoropropylsulfonyl)benzamide] | 0.0% | 0.0%
2 | CCOc1cncc(C#Cc2cncc(C(=O)N3CCN(c4ccc(C(=O)NS(=O)(=O)CCC(F)(F)F)cc4)CC3)c2)c1 [B2N032-01, 4-[4-[5-[2-(5-Ethoxypyridin-3-yl)ethynyl]pyridine-3-carbonyl]piperazin-1-yl]-N-(3,3,3-trifluoropropylsulfonyl)benzamide] | −0.4% | −1.0%
3 | CCOc1cccc(-c2ccccc2CCC(=O)N2CCN(c3ccc(C(=O)NS(=O)(=O)CCC(F)(F)F)cc3)CC2)c1 [B2N033-01, 4-[4-[3-[2-(3-Ethoxyphenyl)phenyl]propanoyl]piperazin-1-yl]-N-(3,3,3-trifluoropropylsulfonyl)benzamide] | 0.0% | 0.0%
4 | CCOc1cncc(-c2ccccc2CCC(=O)N2CCN(c3ccc(C(=O)NS(=O)(=O)CCC(F)(F)F)cc3)CC2)c1 [B2N034-01, 4-[4-[3-[2-(5-Ethoxypyridin-3-yl)phenyl]propanoyl]piperazin-1-yl]-N-(3,3,3-trifluoropropylsulfonyl)benzamide] | −0.2% | 1.0%
5 | CCOc1cccc(-c2ccc(C(=O)N3CCN(c4ccc(C(=O)NS(=O)(=O)CCC(F)(F)F)cc4)CC3)c3ccccc23)c1 [B2N035-01, 4-[4-[4-(3-Ethoxyphenyl)naphthalene-1-carbonyl]piperazin-1-yl]-N-(3,3,3-trifluoropropylsulfonyl)benzamide] | 0.0% | 0.0%
6 | CCOc1cncc(-c2ccc(C(=O)N3CCN(c4ccc(C(=O)NS(=O)(=O)CCC(F)(F)F)cc4)CC3)c3ccccc23)c1 [B2N036-01, 4-[4-[4-(5-Ethoxypyridin-3-yl)naphthalene-1-carbonyl]piperazin-1-yl]-N-(3,3,3-trifluoropropylsulfonyl)benzamide] | 0.0% | 0.4%
7 | CCOc1cccc(-c2cc(C(=O)N3CCN(c4ccc(C(=O)NS(=O)(=O)CCC(F)(F)F)cc4)CC3)cc(C(C)(C)C)c2)c1 [B2N037-01, 4-[4-[3-tert-Butyl-5-(3-ethoxyphenyl)benzoyl]piperazin-1-yl]-N-(3,3,3-trifluoropropylsulfonyl)benzamide] | 0.0% | 0.0%
8 | CCOc1cncc(-c2cc(C(=O)N3CCN(c4ccc(C(=O)NS(=O)(=O)CCC(F)(F)F)cc4)CC3)cc(C(C)(C)C)c2)c1 [B2N038-01, 4-[4-[3-tert-Butyl-5-(5-ethoxypyridin-3-yl)benzoyl]piperazin-1-yl]-N-(3,3,3-trifluoropropylsulfonyl)benzamide] | 0.0% | 0.0%
9 | CCOc1cncc(-c2cc(C(=O)N3CCN(c4ccc(C(=O)NS(=O)(=O)CCC(F)(F)F)cc4)CC3)cc(C(F)(F)F)c2)c1 [B2N040-01, 4-[4-[3-(5-Ethoxypyridin-3-yl)-5-(trifluoromethyl)benzoyl]piperazin-1-yl]-N-(3,3,3-trifluoropropylsulfonyl)benzamide] | 0.0% | 0.0%
10 | CCOc1cncc(C#Cc2cc(C(=O)N3CCN(c4ccc(C(=O)NS(=O)(=O)CCC(F)(F)F)cc4)CC3)cc(C(F)(F)F)c2)c1 [B2N042-01, 4-[4-[3-[2-(5-Ethoxypyridin-3-yl)ethynyl]-5-(trifluoromethyl)benzoyl]piperazin-1-yl]-N-(3,3,3-trifluoropropylsulfonyl)benzamide] | 0.0% | 0.0%
11 | CCOc1cccc(-c2cnn(-c3cc(C(=O)N4CCN(c5ccc(C(=O)NS(=O)(=O)CCC(F)(F)F)cc5)CC4)cc(C(F)(F)F)c3)c2)c1 [B2N043-01, 4-[4-[3-[4-(3-Ethoxyphenyl)pyrazol-1-yl]-5-(trifluoromethyl)benzoyl]piperazin-1-yl]-N-(3,3,3-trifluoropropylsulfonyl)benzamide] | −1.4% | 0.1%
12 | CCOc1cncc(-c2cnn(-c3cc(C(=O)N4CCN(c5ccc(C(=O)NS(=O)(=O)CCC(F)(F)F)cc5)CC4)cc(C(F)(F)F)c3)c2)c1 [B2N044-01, 4-[4-[3-[4-(5-Ethoxypyridin-3-yl)pyrazol-1-yl]-5-(trifluoromethyl)benzoyl]piperazin-1-yl]-N-(3,3,3-trifluoropropylsulfonyl)benzamide] | 0.2% | 1.4%
13 | CCOc1cccc(-c2ccccc2CN2CCN(c3ccc(C(=O)NS(=O)(=O)CCC(F)(F)F)cc3)CC2)c1 [B2N045-01, 4-[4-[[2-(3-Ethoxyphenyl)phenyl]methyl]piperazin-1-yl]-N-(3,3,3-trifluoropropylsulfonyl)benzamide] | 0.0% | 0.1%
14 | CCOc1cncc(-c2ccccc2CN2CCN(c3ccc(C(=O)NS(=O)(=O)CCC(F)(F)F)cc3)CC2)c1 [B2N046-01, 4-[4-[[2-(5-Ethoxypyridin-3-yl)phenyl]methyl]piperazin-1-yl]-N-(3,3,3-trifluoropropylsulfonyl)benzamide] | 0.0% | −1.2%
15 | CCOc1cccc(-c2ccc(CN3CCN(c4ccc(C(=O)NS(=O)(=O)CCC(F)(F)F)cc4)CC3)cc2C)c1 [B2N047-01, 4-[4-[[4-(3-Ethoxyphenyl)-3-methylphenyl]methyl]piperazin-1-yl]-N-(3,3,3-trifluoropropylsulfonyl)benzamide] | 0.0% | 0.0%
16 | CCOc1cncc(-c2ccc(CN3CCN(c4ccc(C(=O)NS(=O)(=O)CCC(F)(F)F)cc4)CC3)cc2C)c1 [B2N048-01, 4-[4-[[4-(5-Ethoxypyridin-3-yl)-3-methylphenyl]methyl]piperazin-1-yl]-N-(3,3,3-trifluoropropylsulfonyl)benzamide] | 0.0% | −0.7%
17 | CCOc1cccc(-c2ccc(CN3CCN(c4ccc(C(=O)NS(=O)(=O)CCC(F)(F)F)cc4)CC3)c(CC)c2)c1 [B2N049-01, 4-[4-[[4-(3-Ethoxyphenyl)-2-ethylphenyl]methyl]piperazin-1-yl]-N-(3,3,3-trifluoropropylsulfonyl)benzamide] | 0.0% | 0.0%
18 | CCOc1cncc(-c2ccc(CN3CCN(c4ccc(C(=O)NS(=O)(=O)CCC(F)(F)F)cc4)CC3)c(CC)c2)c1 [B2N050-01, 4-[4-[[4-(5-Ethoxypyridin-3-yl)-2-ethylphenyl]methyl]piperazin-1-yl]-N-(3,3,3-trifluoropropylsulfonyl)benzamide] | 0.0% | –
19 | CCOc1cccc(-c2ccc(CN3CCN(c4ccc(C(=O)NS(=O)(=O)CCC(F)(F)F)cc4)CC3)cc2F)c1 [B2N051-01, 4-[4-[[4-(3-Ethoxyphenyl)-3-fluorophenyl]methyl]piperazin-1-yl]-N-(3,3,3-trifluoropropylsulfonyl)benzamide] | 0.0% | 0.0%
20 | CCOc1cncc(-c2ccc(CN3CCN(c4ccc(C(=O)NS(=O)(=O)CCC(F)(F)F)cc4)CC3)cc2F)c1 [B2N052-01, 4-[4-[[4-(5-Ethoxypyridin-3-yl)-3-fluorophenyl]methyl]piperazin-1-yl]-N-(3,3,3-trifluoropropylsulfonyl)benzamide] | 0.0% | −0.5%
21 | CCOc1cccc(-c2ccc(CN3CCN(c4ccc(C(=O)NS(=O)(=O)CCC(F)(F)F)cc4)CC3)c(OC)c2)c1 [B2N053-01, 4-[4-[[4-(3-Ethoxyphenyl)-2-methoxyphenyl]methyl]piperazin-1-yl]-N-(3,3,3-trifluoropropylsulfonyl)benzamide] | 0.0% | 1.4%
22 | CCOc1cncc(-c2ccc(CN3CCN(c4ccc(C(=O)NS(=O)(=O)CCC(F)(F)F)cc4)CC3)c(OC)c2)c1 [B2N054-01, 4-[4-[[4-(5-Ethoxypyridin-3-yl)-2-methoxyphenyl]methyl]piperazin-1-yl]-N-(3,3,3-trifluoropropylsulfonyl)benzamide] | 0.0% | 0.0%
23 | CCOc1cccc(-c2cc(CN3CCN(c4ccc(C(=O)NS(=O)(=O)CCC(F)(F)F)cc4)CC3)cc(OCC)c2)c1 [B2N055-01, 4-[4-[[3-Ethoxy-5-(3-ethoxyphenyl)phenyl]methyl]piperazin-1-yl]-N-(3,3,3-trifluoropropylsulfonyl)benzamide] | 0.0% | 0.0%
24 | CCOc1cncc(-c2cc(CN3CCN(c4ccc(C(=O)NS(=O)(=O)CCC(F)(F)F)cc4)CC3)cc(OCC)c2)c1 [B2N056-01] | 0.0% | 0.0%
25 | CCOc1cccc(-c2cc(CN3CCN(c4ccc(C(=O)NS(=O)(=O)CCC(F)(F)F)cc4)CC3)cc(OC(C)C)c2)c1 [B2N057-01, 4-[4-[[3-(3-Ethoxyphenyl)-5-propan-2-yloxyphenyl]methyl]piperazin-1-yl]-N-(3,3,3-trifluoropropylsulfonyl)benzamide] | 0.0% | −1.8%
26 | CCOc1cncc(-c2cc(CN3CCN(c4ccc(C(=O)NS(=O)(=O)CCC(F)(F)F)cc4)CC3)cc(OC(C)C)c2)c1 [B2N058-01, 4-[4-[[3-(5-Ethoxypyridin-3-yl)-5-propan-2-yloxyphenyl]methyl]piperazin-1-yl]-N-(3,3,3-trifluoropropylsulfonyl)benzamide] | 0.0% | 0.0%
27 | CCOc1cccc(-c2cc(OC)c(CN3CCN(c4ccc(C(=O)NS(=O)(=O)CCC(F)(F)F)cc4)CC3)c(OC)c2)c1 [B2N059-01, 4-[4-[[4-(3-Ethoxyphenyl)-2,6-dimethoxyphenyl]methyl]piperazin-1-yl]-N-(3,3,3-trifluoropropylsulfonyl)benzamide] | 0.0% | 0.0%
